Read-outs that look alike come from different tables or passages of the source.
Legend:
[1] = Pharmacokinetics of intraperitoneal or intravenous injection in CD1 mice (plasma, LC/MS/MS); format: in vivo; settings: for concentration at 0.25 h / concentration at 0.5 h / concentration at 1 h / concentration at 2 h / concentration at 4 h / concentration at 8 h / concentration at 24 h / concentration at 0.033 h / concentration at 0.083 h: male, CD1, mouse, plasma
Experimental: Pharmacokinetics of Intraperitoneal or Intravenous Injection of Example 1 or Example 2.
The pharmacokinetics of Example 1 and 2 was examined for intraperitoneal and intravenous administration. The desired serial concentrations of working solutions were achieved by diluting stock solution (1 mg/mL in DMSO) of analyte with methanol. In particular, 20 μL of working solutions (1, 2, 5, 10, 50, 100, 500, 1000, 2000 ng/mL) were added to 20 μL of the blank CD1 mice plasma to achieve calibration standards of 1-2000 ng/mL (1, 2, 5, 10, 50, 100, 500, 1000, 2000 ng/mL) in a total volume of 40 pt. Dose of IV and IP were diluted by 1000 fold and 10000 with methanol, 20 μL of the diluted dose solutions were added to 20 μL of the blank CD1 mice plasma to achieve dose samples. Next, 40 μL standards and 40 μL dose samples were added to 20 μL of assay Internal Standard (100 ng/mL) and 200 μL of acetonitrile for precipitating protein respectively. Then the samples were vortexed for 30 seconds. After centrifugation at 4 degree Celsius, 4000 rpm for 15 min, the supernatant was diluted 3 times with water. Then, 10 μL of the diluted supernatant was injected into the LC/MS/MS system for quantitative analysis.
Examples 1 and 2 were administered intravenously (5 second injection of 10% HP-b-CD and 40 mM sodium acetate and 40 mM NaCl in water, pH4.5) or intraperitoneally (5% EtOH and 5% Solutol HS15 in D5W(ESD-2)) to 6-8 week old male CD1 mice (3 mice per treatment group for a total of 12 mice) at the time points indicated below in Table 3. The mice had free access to food and water.
Dorsal metatarsal vein samples (30 μL), except that the final sample was acquired via a heart puncture, were taken from the mice at the same the administration time points as shown in Table 2.
The data for Example 1 is shown below in FIG. 5 and Tables 5 (FIG. 6), 6 and 7. The data for Example 2 is shown in FIG. 7 and Tables 8 (FIG. 8), 9, and 10.

[2] = biological target: T1, MET (Homo sapiens, UniProt P08581); experiment: KINOMEscan in vitro kinase binding; settings: screened at 1000 nM
T1 construct: purchased DiscoverRx Corporation (KINOMEscan platform, service)
Experimental: (§1) PROTAC in vitro binding affinities (Kd) to c-Met was determined using the KINOMEscan™ platform (DiscoverRx Corporation). The compounds were solubilized in DMSO and sent to DiscoverRx Corporation as 10 μM stock solutions.

[3] = biological target: T2, MET (M1250T) (Homo sapiens, UniProt P08581, M1250T); experiment: KINOMEscan in vitro kinase binding; settings: screened at 1000 nM; lower number = stronger binding
T2 construct: purchased DiscoverRx Corporation (KINOMEscan platform, service)
Experimental: as §1

[4] = biological target: T3, MET (Y1235D) (Homo sapiens, UniProt P08581, Y1235D); experiment: KINOMEscan in vitro kinase binding; settings: screened at 1000 nM; lower number = stronger binding
T3 construct: purchased DiscoverRx Corporation (KINOMEscan platform, service)
Experimental: as §1

[5] = biological target: T4, cMET (Homo sapiens, UniProt P08581); experiment: Western blot examination of protein degradation, MDA-MB-231 cells; format: cell-based; settings: 24 hours
T4 construct: endogenous in cells; host or cells: MDA-MB-231
Experimental: FIG. 4. Illustrates the degradation of Met by exemplary VHL (Examples 1 and 6) and cereblon (Examples 2 and 8) PROTACS.
Western Blot Examination of Protein Degradation.
MDA-MB-231 cells (1-1.5×10^6) were treated for 24 hours with the indicated compounds solubilized in DMSO. The cells were collected at 300 g for 3 minutes. The cells were then lysed in lysis buffer (25 mM Tris, 1% Triton, 0.25% deoxycholic acid) with Roche protease inhibitor complete cocktail and phosphatase inhibitors (10 mM sodium fluoride, 10 mM sodium pyrophosphate, 1 mM sodium orthovanadate and 20 mM β-glycerophosphate). The total protein concentrations were determined by Pierce BCA Protein Assay and 30-50 μg of protein was loaded onto 10% Tris-Glycine gels. After standard gel electrophoresis, the separated proteins were transferred to nitrocellulose by wet transfer. The immunoblots were then processed by standard procedures and incubated with the respective antibodies. Band intensities were quantified by Bio-Rad's Image Lab software.

[6] = ip, 10 mg/kg, IP 10 mg/kg, read-out: Conc. Mean
[7] = ip, 10 mg/kg, IP 10 mg/kg, read-out: Conc. Mouse 1
[8] = ip, 10 mg/kg, IP 10 mg/kg, read-out: Conc. Mouse 2
[9] = ip, 10 mg/kg, IP 10 mg/kg, read-out: Conc. Mouse 3
[10] = iv, 1 mg/kg, IV 1.0 mg/kg, read-out: Conc. Mean
[11] = iv, 1 mg/kg, IV 1.0 mg/kg, read-out: Conc. Mouse 1
[12] = iv, 1 mg/kg, IV 1.0 mg/kg, read-out: Conc. Mouse 2
[13] = iv, 1 mg/kg, IV 1.0 mg/kg, read-out: Conc. Mouse 3

Conc. Mouse 1 ([1]; IV 1.0 mg/kg, 24 h): BLOQ | Conc. Mouse 2 ([1]; IV 1.0 mg/kg, 24 h): BLOQ | concentration at 0.25 h [1, 6]: 2200 ng/mL | concentration at 0.25 h [1, 7]: 3420 ng/mL | concentration at 0.25 h [1, 8]: 2180 ng/mL | concentration at 0.25 h [1, 9]: 990 ng/mL | concentration at 0.5 h [1, 6]: 3310 ng/mL | concentration at 0.5 h [1, 7]: 5210 ng/mL | concentration at 0.5 h [1, 8]: 2500 ng/mL | concentration at 0.5 h [1, 9]: 2210 ng/mL | concentration at 1 h [1, 6]: 5530 ng/mL | concentration at 1 h [1, 7]: 4470 ng/mL | concentration at 1 h [1, 8]: 9060 ng/mL | concentration at 1 h [1, 9]: 3050 ng/mL | concentration at 2 h [1, 6]: 7500 ng/mL | concentration at 2 h [1, 7]: 5740 ng/mL | concentration at 2 h [1, 8]: 6210 ng/mL | concentration at 2 h [1, 9]: 10500 ng/mL | concentration at 4 h [1, 6]: 4520 ng/mL | concentration at 4 h [1, 7]: 6340 ng/mL | concentration at 4 h [1, 8]: 3740 ng/mL | concentration at 4 h [1, 9]: 3460 ng/mL | concentration at 8 h [1, 6]: 411 ng/mL | concentration at 8 h [1, 7]: 476 ng/mL | concentration at 8 h [1, 8]: 329 ng/mL | concentration at 8 h [1, 9]: 429 ng/mL | concentration at 24 h ([1]; ip, 10 mg/kg, IP 10 mg/kg, 24 h, read-out: Conc. Mean): 12.3 ng/mL | concentration at 24 h ([1]; ip, 10 mg/kg, IP 10 mg/kg, 24 h, read-out: Conc. Mouse 1): 12.2 ng/mL | concentration at 24 h ([1]; ip, 10 mg/kg, IP 10 mg/kg, 24 h, read-out: Conc. Mouse 2): 9.43 ng/mL | concentration at 24 h ([1]; ip, 10 mg/kg, IP 10 mg/kg, 24 h, read-out: Conc. Mouse 3): 15.1 ng/mL | concentration at 0.033 h [1, 10]: 2350 ng/mL | concentration at 0.033 h [1, 11]: 2050 ng/mL | concentration at 0.033 h [1, 12]: 2820 ng/mL | concentration at 0.033 h [1, 13]: 2190 ng/mL | concentration at 0.083 h [1, 10]: 1530 ng/mL | concentration at 0.083 h [1, 11]: 1200 ng/mL | concentration at 0.083 h [1, 12]: 1810 ng/mL | concentration at 0.083 h [1, 13]: 1590 ng/mL | concentration at 0.25 h [1, 10]: 691 ng/mL | concentration at 0.25 h [1, 11]: 491 ng/mL | concentration at 0.25 h [1, 12]: 991 ng/mL | concentration at 0.25 h [1, 13]: 590 ng/mL | concentration at 0.5 h [1, 10]: 397 ng/mL | concentration at 0.5 h [1, 11]: 280 ng/mL | concentration at 0.5 h [1, 12]: 497 ng/mL | concentration at 0.5 h [1, 13]: 413 ng/mL | concentration at 1 h [1, 10]: 143 ng/mL | concentration at 1 h [1, 11]: 142 ng/mL | concentration at 1 h [1, 12]: 135 ng/mL | concentration at 1 h [1, 13]: 153 ng/mL | concentration at 2 h [1, 10]: 70.3 ng/mL | concentration at 2 h [1, 11]: 55.5 ng/mL | concentration at 2 h [1, 12]: 92.9 ng/mL | concentration at 2 h [1, 13]: 62.3 ng/mL | concentration at 4 h [1, 10]: 15.4 ng/mL | concentration at 4 h [1, 11]: 16.8 ng/mL | concentration at 4 h [1, 12]: 15.4 ng/mL | concentration at 4 h [1, 13]: 13.9 ng/mL | concentration at 8 h [1, 10]: 8.6 ng/mL | concentration at 8 h [1, 11]: 10.1 ng/mL | concentration at 8 h [1, 12]: 10.6 ng/mL | concentration at 8 h [1, 13]: 5.2 ng/mL | concentration at 24 h ([1]; iv, 1 mg/kg, IV 1.0 mg/kg, 24 h, read-out: Conc. Mouse 3): 0.971 ng/mL | binding to MET (in words) [2]: strong binding to MET | % Ctrl ([2]; lower number = stronger binding): 0.75 % Ctrl | % Ctrl [3]: 6.0 % Ctrl | % Ctrl [4]: 8.2 % Ctrl | degradation of c-Met (western blot) [5]: significant protein degradation of c-Met
SMILES: COc1cc2c(Oc3ccc(NC(=O)C4(C(=O)Nc5ccc(F)cc5)CC4)cc3F)ccnc2cc1OCCCOCCCOCCC(=O)N[C@H](C(=O)N1C[C@H](O)C[C@H]1C(=O)NCc1ccc(-c2scnc2C)cc1)C(C)(C)C [Example 1]
